Reference: patent US20240158392A1 (Janssen Biotech, Inc., priority 2021, published 2024)
Like-named read-outs stand apart in the source and are kept apart here.

Biological target: SIK2 (Homo sapiens, UniProt Q9H0K1)
Assay: SIK2 Enzymatic Assay High Version 2 (High ATP)
Format: biochemical
Method in brief: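 At room temperature, enzyme (6 nM, 2× final) was preincubated with compound for 30 min, then 6 mM ATP and 400 μM HDAC5tide (both 2× final) were added for 2 h. ADP formed was measured by ADP-Glo Max (2 h reagent, 1 h detection) using luminescence.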

[1] = enzyme 6 nM, 6 mM ATP and 400 μM HDAC5tide (each 2× final concentration), 30 minutes pre-incubation, 2 hours, ADP-Glo Max luminescence, read-out: SIK2 high ATP IC50 (μM) (Test Example 2)

Chain of SIK2 (Q9H0K1 whole entry, species assumed): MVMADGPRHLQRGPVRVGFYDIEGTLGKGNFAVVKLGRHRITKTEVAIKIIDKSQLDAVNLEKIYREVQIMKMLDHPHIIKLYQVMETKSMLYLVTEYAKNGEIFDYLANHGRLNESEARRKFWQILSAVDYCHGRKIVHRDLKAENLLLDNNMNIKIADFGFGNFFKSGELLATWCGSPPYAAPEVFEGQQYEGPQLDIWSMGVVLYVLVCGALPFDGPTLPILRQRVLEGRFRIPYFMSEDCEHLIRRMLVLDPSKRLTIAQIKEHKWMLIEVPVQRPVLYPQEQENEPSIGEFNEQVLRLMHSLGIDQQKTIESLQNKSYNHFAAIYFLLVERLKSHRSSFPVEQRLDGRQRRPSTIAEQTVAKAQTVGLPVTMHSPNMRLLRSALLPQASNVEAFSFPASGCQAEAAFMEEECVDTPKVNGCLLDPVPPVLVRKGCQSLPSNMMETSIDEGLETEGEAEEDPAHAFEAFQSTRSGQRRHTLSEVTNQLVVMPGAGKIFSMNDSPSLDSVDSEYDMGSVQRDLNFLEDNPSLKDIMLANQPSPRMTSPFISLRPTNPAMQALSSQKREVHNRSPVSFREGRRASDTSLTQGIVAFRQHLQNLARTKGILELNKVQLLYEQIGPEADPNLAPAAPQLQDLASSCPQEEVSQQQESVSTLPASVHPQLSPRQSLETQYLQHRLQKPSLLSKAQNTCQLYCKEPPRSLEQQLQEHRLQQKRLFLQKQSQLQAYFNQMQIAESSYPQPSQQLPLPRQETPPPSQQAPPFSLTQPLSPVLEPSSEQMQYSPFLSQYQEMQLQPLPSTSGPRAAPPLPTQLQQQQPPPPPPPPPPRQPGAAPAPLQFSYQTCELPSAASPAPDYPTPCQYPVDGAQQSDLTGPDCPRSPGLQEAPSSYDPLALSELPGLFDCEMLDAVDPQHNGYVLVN

IC50 [1] [µM] | Compound | IC50 [µM]
0.0175 | Cc1cc(-c2ccn3nc(Nc4cc(C)nc(C)n4)cc3c2)c(OC[C@H]2CCO[C@H]2C)cn1 (single isomer, unassigned) [Example 206, N-(2,6-dimethylpyrimidin-4-yl)-5-(2-methyl-5-(((2*S,3*R)-2-methyltetrahydrofuran-3-yl)methoxy)pyridin-4-yl)pyrazolo[1,5-a]pyridin-2-amine] | 
0.01 | Cc1cc(-c2ccn3nc(Nc4cc(C)nc(C)n4)cc3c2)c(OCCC2(C#N)COC2)cn1 [Example 722, 3-[2-[[4-[2-[(2,6-dimethylpyrimidin-4-yl)amino]pyrazolo[1,5-a]pyridin-5-yl]-6-methyl-3-pyridyl]oxy]ethyl]oxetane-3-carbonitrile] | 
0.0868 | Cc1cc(-c2ccn3nc(Nc4cc(C(F)(F)F)c(C(=O)NC(C)C)cn4)cc3c2)c(OCC(C)(C)O)cn1 [Example 650, 6-[[5-[5-(2-hydroxy-2-methyl-propoxy)-2-methyl-4-pyridyl]pyrazolo[1,5-a]pyridin-2-yl]amino]-N-isopropyl-4-(trifluoromethyl)pyridine-3-carboxamide] | 
< 0.000847 | Cc1cc(-c2ccn3nc(Nc4cc(C)c(=O)n(C5CC5)n4)cc3c2)c(O[C@H]2CC[C@H](O)CC2)cn1 [Example 318, 2-cyclopropyl-6-[[5-[5-(4-hydroxycyclohexoxy)-2-methyl-4-pyridyl]pyrazolo[1,5-a]pyridin-2-yl]amino]-4-methyl-pyridazin-3-one] | 
0.0187 | Cc1cc(-c2ccn3nc(Nc4nn(C)c5ncccc45)cc3c2)c(OCC(C)(C)O)cn1 [Example 292, 2-methyl-1-[[6-methyl-4-[2-[(1-methylpyrazolo[3,4-b]pyridin-3-yl)amino]pyrazolo[1,5-a]pyridin-5-yl]-3-pyridyl]oxy]propan-2-ol] | 
< 0.000847 | Cc1cc(-c2ccn3nc(Nc4cc(C)c(=O)n(C)n4)cc3c2)c(OC[C@](C)(N)C(F)(F)F)cn1 (single isomer, unassigned) [Example 312, (*S)-6-[[5-[5-(2-amino-3,3,3-trifluoro-2-methyl-propoxy)-2-methyl-4-pyridyl]pyrazolo[1,5-a]pyridin-2-yl]amino]-2,4-dimethyl-pyridazin-3-one] | 
< 0.000847 | CNc1nc(C)cc(Nc2cc3cc(-c4cc(C)ncc4O[C@H]4CC[C@H](O)CC4)ccn3n2)n1 [Example 227, (1r,4r)-4-((6-methyl-4-(2-((6-methyl-2-(methylamino)pyrimidin-4-yl)amino)pyrazolo[1,5-a]pyridin-5-yl)pyridin-3-yl)oxy)cyclohexan-1-ol] | 
0.00172 | CNc1cc(-c2ccn3nc(Nc4cc(C)nc(C)n4)cc3c2)c(OC[C@@H]2CNCCO2)cn1 [Example 501, N-(2,6-dimethylpyrimidin-4-yl)-5-[2-(methylamino)-5-[[(2S)-morpholin-2-yl]methoxy]-4-pyridyl]pyrazolo[1,5-a]pyridin-2-amine] | 
0.0821 | Cc1cncc(Nc2cc3cc(-c4cc(OCC(F)F)ncc4OCC(C)(C)C#N)ccn3n2)n1 [Example 696, 3-[[6-(2,2-difluoroethoxy)-4-[2-[(6-methylpyrazin-2-yl)amino]pyrazolo[1,5-a]pyridin-5-yl]-3-pyridyl]oxy]-2,2-dimethyl-propanenitrile] | 
0.0057 | Cc1cc(-c2ccn3nc(Nc4cc(C)c(=O)n(C)n4)cc3c2)c(OC[C@@](C)(N)C(F)(F)F)cn1 (single isomer, unassigned) [Example 311, (*R)-6-[[5-[5-(2-amino-3,3,3-trifluoro-2-methyl-propoxy)-2-methyl-4-pyridyl]pyrazolo[1,5-a]pyridin-2-yl]amino]-2,4-dimethyl-pyridazin-3-one] | 
0.111 | Cc1ncc(Nc2cc3cc(-c4cc(OC(F)F)ncc4OCC(C)(C)C#N)ccn3n2)cn1 [Example 641, 3-[[6-(difluoromethoxy)-4-[2-[(2-methylpyrimidin-5-yl)amino]pyrazolo[1,5-a]pyridin-5-yl]-3-pyridyl]oxy]-2,2-dimethyl-propanenitrile] | 
0.115 | Cc1cc(-c2ccn3nc(Nc4ccc(C)nn4)cc3c2)c(OCC(C)(C)O)cn1 [Example 612, 2-methyl-1-[[6-methyl-4-[2-[(6-methylpyridazin-3-yl)amino]pyrazolo[1,5-a]pyridin-5-yl]-3-pyridyl]oxy]propan-2-ol] | 
0.184 | Cc1cc(Nc2cc3cc(-c4cc(OCC(F)F)ncc4OCC(C)(C)C#N)ccn3n2)nc(C)n1 [Example 660, 3-[[6-(2,2-difluoroethoxy)-4-[2-[(2,6-dimethylpyrimidin-4-yl)amino]pyrazolo[1,5-a]pyridin-5-yl]-3-pyridyl]oxy]-2,2-dimethyl-propanenitrile] | 
0.0755 | CC(C)(C#N)COc1cnc(OC(F)F)cc1-c1ccn2nc(Nc3cc4n(n3)CCNC4)cc2c1 [Example 706, 3-[[6-(difluoromethoxy)-4-[2-(4,5,6,7-tetrahydropyrazolo[1,5-a]pyrazin-2-ylamino)pyrazolo[1,5-a]pyridin-5-yl]-3-pyridyl]oxy]-2,2-dimethyl-propanenitrile] | 

More lines, now with the values behind:

Compound | IC50 [1] [µM] | IC50 [µM]
Cc1cc(-c2ccn3nc(Nc4cnn(C)c4)cc3c2)c(O[C@H]2C[C@H]3COC[C@@H](C2)N3C)cn1 [Example 124] |  | 0.00124
Cc1cc(-c2ccn3nc(Nc4ccc(S(C)(=O)=O)cn4)cc3c2)c(O[C@H]2C[C@H]3COC[C@@H](C2)N3)cn1 [Example 393, 5-[2-methyl-5-[[(1R,5S,7s)-3-oxa-9-azabicyclo[3.3.1]nonan-7-yl]oxy]-4-pyridyl]-N-(5-methylsulfonyl-2-pyridyl)pyrazolo[1,5-a]pyridin-2-amine] |  | 0.00131
Cc1cc(-c2ccn3nc(NC(=O)C4CC4)cc3c2)c(OC[C@H]2CCN2CCF)cn1 [Example 529, N-[5-[5-[[(2R)-1-(2-fluoroethyl)azetidin-2-yl]methoxy]-2-methyl-4-pyridyl]pyrazolo[1,5-a]pyridin-2-yl]cyclopropanecarboxamide] |  | 0.000963
(*S)-4-[[6-(difluoromethoxy)-4-[2-[(2,6-dimethylpyrimidin-4-yl)amino]pyrazolo[1,5-a]pyridin-5-yl]-3-pyridyl]oxymethyl]-1,5,5-trimethyl-pyrrolidin-2-one [Example 741] | 0.00266 | 
Cc1cc(-c2ccn3nc(Nc4cnccn4)cc3c2)c(O[C@H]2C[C@H]3COC[C@@H](C2)N3)cn1 [Example 392, 5-[2-methyl-5-[[(1S,5R,7s)-3-oxa-9-azabicyclo[3.3.1]nonan-7-yl]oxy]-4-pyridyl]-N-pyrazin-2-yl-pyrazolo[1,5-a]pyridin-2-amine] |  | 0.00107
CC#Cc1cc(-c2ccn3nc(Nc4ccn(C)n4)cc3c2)c(O[C@H]2CC[C@H](O)CC2)cn1 [Example 187, trans-4-[[4-[2-[(1-methylpyrazol-3-yl)amino]pyrazolo[1,5-a]pyridin-5-yl]-6-prop-1-ynyl-3-pyridyl]oxy]cyclohexanol] | 0.00407 | 
Cc1cc(-c2ccn3nc(NC(=O)C4CC4)cc3c2)c(OC2CCC(=NO)CC2)cn1 (centres unmarked) [Example 199, N-[5-[5-(4-hydroxyiminocyclohexoxy)-2-methyl-4-pyridyl]pyrazolo[1,5-a]pyridin-2-yl]cyclopropanecarboxamide] | 0.0502 | 
Cc1cc(-c2ccn3nc(Nc4cccnn4)cc3c2)c(OC[C@H]2CNCC(C)(C)O2)cn1 (single isomer, unassigned) [Example 516, (*R)-5-[5-[(6,6-dimethylmorpholin-2-yl)methoxy]-2-methyl-4-pyridyl]-N-pyridazin-3-yl-pyrazolo[1,5-a]pyridin-2-amine] | 0.0528 | 
Cc1cc(-c2ccn3nc(Nc4ccc(C(=O)N(C)C)cn4)cc3c2)c(O[C@H]2C[C@H]3COC[C@@H](C2)N3)cn1 [Example 383, N,N-dimethyl-6-[[5-[2-methyl-5-[[(1S,5R,7s)-3-oxa-9-azabicyclo[3.3.1]nonan-7-yl]oxy]-4-pyridyl]pyrazolo[1,5-a]pyridin-2-yl]amino]pyridine-3-carboxamide] |  | 0.000947
Cc1cc(-c2ccn3nc(NC(=O)C4CC4)cc3c2)c(OC[C@H]2NCC2(C)C)cn1 [Example 471, N-[5-[5-[[(2S)-3,3-dimethylazetidin-2-yl]methoxy]-2-methyl-4-pyridyl]pyrazolo[1,5-a]pyridin-2-yl]cyclopropanecarboxamide] |  | 0.0277
Cc1cc(-c2ccn3nc(NC(=O)C4CC4)cc3c2)c(OCC2(O)CCNC2)cn1 (single isomer, unassigned) [Example 223, (*R)—N-[5-[5-[(3-hydroxypyrrolidin-3-yl)methoxy]-2-methyl-4-pyridyl]pyrazolo[1,5-a]pyridin-2-yl]cyclopropanecarboxamide] | 0.0278 | 
COc1cc(Nc2cc3cc(-c4cc(C)ncc4O[C@H]4CC[C@H](O)CC4)ccn3n2)cc(OC)c1C(=O)NC(C)C [Example 330, 4-[[5-[5-(4-hydroxycyclohexoxy)-2-methyl-4-pyridyl]pyrazolo[1,5-a]pyridin-2-yl]amino]-N-isopropyl-2,6-dimethoxy-benzamide] | 0.028 | 
CNC(=O)c1ccc(Nc2cc3cc(-c4cc(C)ncc4O[C@H]4C[C@H]5COC[C@@H](C4)N5)ccn3n2)nc1 [Example 173, 6-((5-(5-(((1R,5S,7s)-3-oxa-9-azabicyclo[3.3.1]nonan-7-yl)oxy)-2-methylpyridin-4-yl)pyrazolo[1,5-a]pyridin-2-yl)amino)-N-methylnicotinamide] |  | < 0.000847
Cc1cc(-c2ccn3nc(NC(=O)C4(F)CC4)cc3c2)c(OC[C@H]2CCN2C)cn1 [Example 623, 1-fluoro-N-[5-[2-methyl-5-[[(2R)-1-methylazetidin-2-yl]methoxy]-4-pyridyl]pyrazolo[1,5-a]pyridin-2-yl]cyclopropanecarboxamide] |  | 0.00644
Cc1cc(Nc2cc3cc(-c4cc(OCC#N)ncc4OC[C@H]4OCC[C@@H]4O)ccn3n2)nc(C)n1 [Example 500, 2-[[4-[2-[(2,6-dimethylpyrimidin-4-yl)amino]pyrazolo[1,5-a]pyridin-5-yl]-5-[[(2R,3S)-3-hydroxytetrahydrofuran-2-yl]methoxy]-2-pyridyl]oxy]acetonitrile] | 0.0454 | 
